Laboratory results as given in paper PMC3914206.

Assays:
Format in all cases: binding
Settings in all cases: Compound Concentration 10 µM
[1] = molecular target: T1, panel of 442 kinases (Homo sapiens, UniProt O43283)
T1 construct: purchased KINOMEscan
T1 sequence (O43283 1-966): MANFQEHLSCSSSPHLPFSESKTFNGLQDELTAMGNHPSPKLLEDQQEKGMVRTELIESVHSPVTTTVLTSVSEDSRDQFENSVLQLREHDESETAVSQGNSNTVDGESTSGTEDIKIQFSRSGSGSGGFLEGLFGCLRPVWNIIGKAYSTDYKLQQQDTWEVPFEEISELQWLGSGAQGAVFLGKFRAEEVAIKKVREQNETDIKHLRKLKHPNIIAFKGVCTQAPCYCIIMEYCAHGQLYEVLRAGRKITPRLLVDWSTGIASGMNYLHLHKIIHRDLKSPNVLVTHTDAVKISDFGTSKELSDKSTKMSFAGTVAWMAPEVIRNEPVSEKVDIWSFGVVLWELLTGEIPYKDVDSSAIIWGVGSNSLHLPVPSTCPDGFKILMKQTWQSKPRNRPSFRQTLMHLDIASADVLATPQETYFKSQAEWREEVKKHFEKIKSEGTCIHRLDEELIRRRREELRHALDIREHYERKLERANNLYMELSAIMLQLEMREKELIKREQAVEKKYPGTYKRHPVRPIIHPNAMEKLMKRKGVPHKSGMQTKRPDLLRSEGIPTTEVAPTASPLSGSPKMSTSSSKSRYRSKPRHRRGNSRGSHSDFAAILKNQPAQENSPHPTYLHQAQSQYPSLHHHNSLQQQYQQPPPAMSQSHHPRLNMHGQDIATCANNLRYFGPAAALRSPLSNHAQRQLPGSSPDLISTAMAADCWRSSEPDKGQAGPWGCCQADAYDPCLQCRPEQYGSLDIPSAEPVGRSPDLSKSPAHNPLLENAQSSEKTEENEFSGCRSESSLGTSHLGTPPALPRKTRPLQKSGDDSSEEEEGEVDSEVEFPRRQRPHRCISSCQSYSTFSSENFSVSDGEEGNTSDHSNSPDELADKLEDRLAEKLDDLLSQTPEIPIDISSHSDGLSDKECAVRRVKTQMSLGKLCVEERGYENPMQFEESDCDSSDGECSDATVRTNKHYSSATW
From the text: (§1) We assessed the selectivity of members of this scaffold using the KINOMEscan methodology across a near comprehensive panel of 442 kinases [[18,27]].

[2] = molecular target: T2, panel of 442 kinases (Homo sapiens, UniProt O75582)
T2 construct: purchased KINOMEscan
T2 sequence (O75582 whole entry): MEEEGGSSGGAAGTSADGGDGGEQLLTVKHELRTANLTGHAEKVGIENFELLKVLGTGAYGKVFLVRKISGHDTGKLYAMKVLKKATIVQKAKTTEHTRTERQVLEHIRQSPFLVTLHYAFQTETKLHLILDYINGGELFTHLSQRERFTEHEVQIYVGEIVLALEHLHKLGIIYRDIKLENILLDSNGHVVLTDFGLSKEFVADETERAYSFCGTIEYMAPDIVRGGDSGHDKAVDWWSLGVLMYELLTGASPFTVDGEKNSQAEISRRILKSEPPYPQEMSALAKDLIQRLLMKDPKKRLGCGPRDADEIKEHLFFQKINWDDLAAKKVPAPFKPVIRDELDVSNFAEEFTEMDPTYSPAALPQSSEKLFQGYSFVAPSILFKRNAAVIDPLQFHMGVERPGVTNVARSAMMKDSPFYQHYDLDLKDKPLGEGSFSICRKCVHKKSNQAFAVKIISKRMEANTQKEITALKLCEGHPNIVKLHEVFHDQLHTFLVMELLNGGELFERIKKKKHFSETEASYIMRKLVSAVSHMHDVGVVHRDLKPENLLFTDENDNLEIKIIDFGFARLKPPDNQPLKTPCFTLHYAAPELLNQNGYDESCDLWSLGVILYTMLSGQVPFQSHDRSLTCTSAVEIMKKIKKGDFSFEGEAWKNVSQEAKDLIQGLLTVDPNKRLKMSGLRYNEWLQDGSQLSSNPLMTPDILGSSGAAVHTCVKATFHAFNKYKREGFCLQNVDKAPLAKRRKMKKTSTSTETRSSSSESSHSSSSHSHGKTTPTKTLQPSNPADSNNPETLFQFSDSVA
From the text: as §1

[3] = molecular target: T3, panel of 442 kinases (Homo sapiens, UniProt Q96Q40)
T3 construct: purchased KINOMEscan
T3 sequence (Q96Q40 whole entry): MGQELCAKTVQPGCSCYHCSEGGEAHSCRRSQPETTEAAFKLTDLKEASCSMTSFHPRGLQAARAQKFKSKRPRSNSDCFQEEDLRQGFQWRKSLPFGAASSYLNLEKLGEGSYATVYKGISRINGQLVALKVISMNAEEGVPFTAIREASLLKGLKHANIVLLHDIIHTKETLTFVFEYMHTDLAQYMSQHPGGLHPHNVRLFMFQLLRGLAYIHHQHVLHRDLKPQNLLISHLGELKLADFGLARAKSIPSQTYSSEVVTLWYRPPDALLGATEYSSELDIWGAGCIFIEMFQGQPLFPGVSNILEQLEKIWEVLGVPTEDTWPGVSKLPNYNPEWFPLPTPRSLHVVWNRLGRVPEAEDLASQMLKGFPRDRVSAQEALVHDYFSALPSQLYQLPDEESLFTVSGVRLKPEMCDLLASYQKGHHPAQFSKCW
From the text: as §1

SMILES | KINOMEscan: LZK [1] | KINOMEscan: RPS6KA5(Kin.Dom.1-N-terminal) [2] | KINOMEscan: RPS6KA5(Kin.Dom.2-C-terminal) [2] | KINOMEscan: PFTAIRE2 [3]
COc1cc(C(=O)N2CCC(N3CCN(C)CC3)CC2)ccc1Nc1ncc2c(n1)N(C1CCCC1)c1ccccc1C(=O)N2C [Compound 25, 11-cyclopentyl-2-((2-methoxy-4-(4-(4-methylpiperazin-1-yl)piperidine-1-carbonyl)phenyl)amino)-5-methyl-5H-benzo[e]pyrimido[5,4-b][1,4]diazepin-6(11H)-one] | 100 | 100 | 100 | 99
CCOc1cc(C(=O)N2CCC(N3CCN(C)CC3)CC2)ccc1Nc1ncc2c(n1)N(C1CCCC1)c1ccccc1C(=O)N2C [Compound 26] | 92 | 100 | 86 | 100
COc1cc(C(=O)N2CCC(N3CCN(C)CC3)CC2)ccc1Nc1ncc2c(n1)N1CCc3cccc(c31)C(=O)N2C [Compound 24] | – | – | 43 | –
COc1cc(C(=O)N2CCC(N3CCN(C)CC3)CC2)ccc1Nc1ncc2c(n1)N(C)c1ccccc1C(=O)N2C [15 (LRRK2-IN-1)] | 100 | 96 | 92 | 100
